The values that follow come from patent publication US12594252B2, “Methods for treating inflammatory skin conditions” (JOURNEY MEDICAL CORPORATION, priority 2018, dated 2026).

This test concerns subjects diagnosed with papulopustular rosacea. Briefly: 16-week, multi-center, randomized, double-blind, parallel-group, controlled efficacy study. Type of test: in vivo, human. The note with it: minocycline about 40 mg, equivalent doses. How it is done: The pharmaceutical compositions as shown in Example 1 and 3 were studied in a 16-week, multi-center, randomized, double-blind, parallel-group, controlled study to evaluate efficacy. Subjects, who were at least 18 years old, diagnosed with papulopustular rosacea were randomized to 4 different treatment groups (50 subjects each in groups 1 to 4). Each subject was allocated to one of the treatment groups, receiving a single dose of Example 1 (Group 1) and Example 3 (Group 2): […]®-40 mg doxycycline capsules (Group 3); and placebo capsules (Group 4), orally for 16 weeks. Subjects' visits were scheduled at screening, baseline (day 1), and weeks 4, 8, 12 and 16. Clinical assessments of efficacy was conducted based on, proportion of subjects with IGA 'treatment success (reduction in IGA grade)' and reduction in total inflammatory lesion count (sum of papules, pustules, and nodules) from baseline (day 1) to weeks 4, 8, 12 and 16. The results are shown in following table 9 (IGA 'treatment success), table 10 (total inflammatory lesion change), table 11 (P values) and FIG. 6, FIG. 7, FIG. 8.

The structures appear in SMILES notation.

For the compound `CN(C)c1ccc(O)c2c1C[C@H]1C[C@H]3[C@H](N(C)C)C(O)=C(C(N)=O)C(=O)[C@@]3(O)C(O)=C1C2=O` [minocycline, [4S-(4α,4aα,5aα,12aα)]-4,7-Bis(dimethylamino)-1,4,4a,5,5a,6,11,12a-octahydro-3,10,12,12a-tetrahydroxy-1,11-dioxo-2-naphthacenecarboxamide], the “% reduction in lesion counts, more as compared to doxycycline (40 mg)” value is recorded as “about 100%”.
